PMC8474115 (Journal of Medicinal Chemistry, 2021)
pIC50, pKi: −log10 of the molar value. Structures can show the parent of a compound that is named as a salt. Where two headings read alike, the source gives them in different places.

How the values were obtained:
COX-1 = molecular target: T1, COX-1 (Homo sapiens, UniProt P23219); assay: Eurofins SafetyScreen panel; type: biochemical
T1 construct: Eurofins

MAO-A = molecular target: T2, MAO-A (Homo sapiens, UniProt P21397); assay: Eurofins SafetyScreen panel; type: biochemical
T2 construct: Eurofins
T2 sequence (P21397 whole entry): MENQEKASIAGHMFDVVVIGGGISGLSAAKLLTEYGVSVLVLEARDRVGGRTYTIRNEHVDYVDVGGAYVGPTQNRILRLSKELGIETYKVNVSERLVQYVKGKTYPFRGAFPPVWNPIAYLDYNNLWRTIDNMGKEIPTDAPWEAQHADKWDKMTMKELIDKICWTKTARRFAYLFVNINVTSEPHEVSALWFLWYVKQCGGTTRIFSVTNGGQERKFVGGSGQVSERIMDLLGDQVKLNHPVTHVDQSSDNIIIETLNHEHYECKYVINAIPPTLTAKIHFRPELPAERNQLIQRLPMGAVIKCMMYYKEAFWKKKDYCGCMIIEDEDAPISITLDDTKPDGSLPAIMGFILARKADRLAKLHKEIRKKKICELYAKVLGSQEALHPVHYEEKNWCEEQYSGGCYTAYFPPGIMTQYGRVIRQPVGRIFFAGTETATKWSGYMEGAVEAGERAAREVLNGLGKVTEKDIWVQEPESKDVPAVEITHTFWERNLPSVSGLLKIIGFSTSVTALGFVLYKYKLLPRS

Adrenergic α1A = molecular target: T3, Adrenergic α1A (Rattus norvegicus, UniProt P43140); assay: Eurofins SafetyScreen panel; type: binding
T3 construct: Eurofins (contract screening, SafetyScreen panel) PP223

Adrenergic β1 = molecular target: T4, Adrenergic β1 (Homo sapiens, UniProt P08588); assay: Eurofins SafetyScreen panel; type: binding
T4 construct: Eurofins (contract screening, SafetyScreen panel) PP223
T4 sequence (P08588 whole entry): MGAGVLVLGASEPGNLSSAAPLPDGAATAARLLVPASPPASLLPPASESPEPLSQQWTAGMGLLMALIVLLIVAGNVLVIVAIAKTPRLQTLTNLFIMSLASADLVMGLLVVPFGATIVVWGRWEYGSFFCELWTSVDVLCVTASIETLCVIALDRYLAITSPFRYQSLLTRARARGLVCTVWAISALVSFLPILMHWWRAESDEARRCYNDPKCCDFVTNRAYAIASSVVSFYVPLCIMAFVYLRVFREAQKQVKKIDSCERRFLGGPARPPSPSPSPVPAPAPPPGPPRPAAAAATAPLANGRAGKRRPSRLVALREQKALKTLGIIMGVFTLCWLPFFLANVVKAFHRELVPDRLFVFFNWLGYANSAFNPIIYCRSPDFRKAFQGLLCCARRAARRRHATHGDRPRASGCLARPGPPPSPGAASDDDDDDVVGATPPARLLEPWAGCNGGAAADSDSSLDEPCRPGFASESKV

Angiotensin AT1 = molecular target: T5, Angiotensin AT1 (Homo sapiens, UniProt P30556); assay: Eurofins SafetyScreen panel; type: binding
T5 construct: Eurofins (contract screening, SafetyScreen panel) PP223

Bradykinin B2 = molecular target: T6, Bradykinin B2 (Homo sapiens, UniProt P30411); assay: Eurofins SafetyScreen panel; type: binding
T6 construct: Eurofins (contract screening, SafetyScreen panel) PP223

Cannabinoid CB1 = molecular target: T7, Cannabinoid CB1 (Homo sapiens, UniProt P21554); assay: Eurofins SafetyScreen panel; type: binding
T7 construct: purchased Eurofins (Panlabs) SafetyScreen87 Panel

Chemokine CCR1 = molecular target: T8, Chemokine CCR1 (Homo sapiens, UniProt P32246); assay: Eurofins SafetyScreen panel; type: binding
T8 construct: purchased Eurofins (Panlabs) SafetyScreen87 Panel
T8 sequence (P32246 whole entry): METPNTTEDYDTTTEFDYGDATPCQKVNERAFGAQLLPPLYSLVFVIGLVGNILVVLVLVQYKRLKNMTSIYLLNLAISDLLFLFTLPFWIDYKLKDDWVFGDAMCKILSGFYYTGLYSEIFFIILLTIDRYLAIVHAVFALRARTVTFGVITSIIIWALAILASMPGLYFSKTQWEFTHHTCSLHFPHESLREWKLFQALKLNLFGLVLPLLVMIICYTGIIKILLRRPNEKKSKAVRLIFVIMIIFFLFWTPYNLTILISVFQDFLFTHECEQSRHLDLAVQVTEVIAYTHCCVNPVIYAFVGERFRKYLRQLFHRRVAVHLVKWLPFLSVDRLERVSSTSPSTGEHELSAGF

Dopamine D1 = molecular target: T9, Dopamine D1 (Homo sapiens, UniProt P21728); assay: Eurofins SafetyScreen panel; type: binding
T9 construct: purchased Eurofins (Panlabs) SafetyScreen87 Panel

Dopamine D2L = molecular target: T10, Dopamine D2L (Homo sapiens, UniProt P14416); assay: Eurofins SafetyScreen panel; type: binding
T10 construct: purchased Eurofins (Panlabs) SafetyScreen87 Panel

Dopamine D2S = molecular target: T11, Dopamine D2S (Homo sapiens, UniProt P14416); assay: Eurofins SafetyScreen panel; type: binding
T11 construct: purchased Eurofins (Panlabs) SafetyScreen87 Panel

Dopamine D3 = molecular target: T12, Dopamine D3 (Homo sapiens, UniProt P35462); assay: Eurofins SafetyScreen panel; type: binding
T12 construct: Eurofins (contract screening) 219800
T12 sequence (P35462 whole entry): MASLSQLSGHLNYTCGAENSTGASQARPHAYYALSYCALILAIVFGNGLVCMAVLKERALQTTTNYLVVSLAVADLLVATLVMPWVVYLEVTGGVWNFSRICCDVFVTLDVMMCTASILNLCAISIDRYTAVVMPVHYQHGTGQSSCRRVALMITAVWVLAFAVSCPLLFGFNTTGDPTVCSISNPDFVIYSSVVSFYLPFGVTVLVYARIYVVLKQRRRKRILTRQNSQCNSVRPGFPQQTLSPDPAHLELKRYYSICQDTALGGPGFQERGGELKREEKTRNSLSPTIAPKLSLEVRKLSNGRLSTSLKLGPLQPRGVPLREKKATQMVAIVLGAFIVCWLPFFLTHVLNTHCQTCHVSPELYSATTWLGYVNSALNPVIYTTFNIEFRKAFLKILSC

[1] = molecular target: T13, Glutamate Metabotropic, mGlu5 (Homo sapiens, UniProt P41594); assay: Eurofins SafetyScreen panel; type: binding
T13 construct: purchased Eurofins (Panlabs) SafetyScreen87 Panel

Glutamate NMDA, Glycine = Glutamate NMDA, Glycine (Rattus norvegicus, UniProt P35439); assay: Eurofins SafetyScreen panel; type: binding
Histamine H1 = molecular target: T14, Histamine H1 (Homo sapiens, UniProt P35367); assay: Eurofins SafetyScreen panel; type: binding
T14 construct: Eurofins (contract screening, SafetyScreen panel) PP223
T14 sequence (P35367 whole entry): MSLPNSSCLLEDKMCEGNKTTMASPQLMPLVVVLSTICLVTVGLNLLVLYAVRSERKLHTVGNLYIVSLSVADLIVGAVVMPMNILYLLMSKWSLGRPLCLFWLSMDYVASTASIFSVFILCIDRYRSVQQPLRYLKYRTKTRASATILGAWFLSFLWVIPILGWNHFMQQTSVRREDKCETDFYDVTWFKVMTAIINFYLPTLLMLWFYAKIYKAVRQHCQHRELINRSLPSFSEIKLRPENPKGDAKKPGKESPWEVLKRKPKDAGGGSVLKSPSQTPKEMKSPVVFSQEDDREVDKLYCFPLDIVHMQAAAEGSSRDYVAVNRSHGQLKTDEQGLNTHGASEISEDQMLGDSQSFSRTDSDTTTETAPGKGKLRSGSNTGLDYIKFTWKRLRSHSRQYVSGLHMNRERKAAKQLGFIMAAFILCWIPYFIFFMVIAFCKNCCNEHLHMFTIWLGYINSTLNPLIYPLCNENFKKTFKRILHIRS

Histamine H2 = molecular target: T15, Histamine H2 (Homo sapiens, UniProt P25021); assay: Eurofins SafetyScreen panel; type: binding
T15 construct: purchased Eurofins (Panlabs) SafetyScreen87 Panel
T15 sequence (P25021 whole entry): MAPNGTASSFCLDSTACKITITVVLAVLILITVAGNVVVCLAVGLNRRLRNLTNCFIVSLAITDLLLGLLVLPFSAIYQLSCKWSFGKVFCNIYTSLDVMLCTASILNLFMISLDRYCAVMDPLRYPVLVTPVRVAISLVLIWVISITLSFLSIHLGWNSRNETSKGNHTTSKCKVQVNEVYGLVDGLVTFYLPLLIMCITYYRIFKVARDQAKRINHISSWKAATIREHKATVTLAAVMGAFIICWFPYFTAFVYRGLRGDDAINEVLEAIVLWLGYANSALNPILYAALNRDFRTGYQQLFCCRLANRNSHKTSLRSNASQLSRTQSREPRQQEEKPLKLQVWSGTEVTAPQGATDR

[2] = molecular target: T16, Leukotriene, Cysteinyl CysLT1 (Homo sapiens, UniProt Q9Y271); assay: Eurofins SafetyScreen panel; type: binding
T16 construct: purchased Eurofins (Panlabs) SafetyScreen87 Panel
T16 sequence (Q9Y271 whole entry): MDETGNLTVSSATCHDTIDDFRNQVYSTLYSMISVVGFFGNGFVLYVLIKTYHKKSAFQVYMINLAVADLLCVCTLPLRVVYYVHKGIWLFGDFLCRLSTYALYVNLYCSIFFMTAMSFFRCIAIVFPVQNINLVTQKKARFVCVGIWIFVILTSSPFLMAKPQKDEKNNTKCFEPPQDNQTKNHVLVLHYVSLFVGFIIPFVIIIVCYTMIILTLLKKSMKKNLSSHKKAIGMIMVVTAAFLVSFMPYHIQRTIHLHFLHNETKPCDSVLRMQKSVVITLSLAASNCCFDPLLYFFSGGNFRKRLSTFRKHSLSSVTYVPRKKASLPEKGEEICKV

Muscarinic M2 = molecular target: T17, Muscarinic M2 (Homo sapiens, UniProt P08172); assay: Eurofins SafetyScreen panel; type: binding
T17 construct: Eurofins (contract screening, SafetyScreen panel) PP223

Muscarinic M4 = molecular target: T18, Muscarinic M4 (Homo sapiens, UniProt P08173); assay: Eurofins SafetyScreen panel; type: binding
T18 construct: Eurofins (contract screening, SafetyScreen panel) PP223

Neuropeptide Y Y1 = molecular target: T19, Neuropeptide Y Y1 (Homo sapiens, UniProt P25929); assay: Eurofins SafetyScreen panel; type: binding
T19 construct: Eurofins (contract screening, SafetyScreen panel) PP223

Opiate μ (OP3, MOP) = molecular target: T20, Opiate μ (OP3, MOP) (Homo sapiens, UniProt P35372); assay: Eurofins SafetyScreen panel; type: binding
T20 construct: Eurofins (contract assay)
T20 sequence (P35372 whole entry): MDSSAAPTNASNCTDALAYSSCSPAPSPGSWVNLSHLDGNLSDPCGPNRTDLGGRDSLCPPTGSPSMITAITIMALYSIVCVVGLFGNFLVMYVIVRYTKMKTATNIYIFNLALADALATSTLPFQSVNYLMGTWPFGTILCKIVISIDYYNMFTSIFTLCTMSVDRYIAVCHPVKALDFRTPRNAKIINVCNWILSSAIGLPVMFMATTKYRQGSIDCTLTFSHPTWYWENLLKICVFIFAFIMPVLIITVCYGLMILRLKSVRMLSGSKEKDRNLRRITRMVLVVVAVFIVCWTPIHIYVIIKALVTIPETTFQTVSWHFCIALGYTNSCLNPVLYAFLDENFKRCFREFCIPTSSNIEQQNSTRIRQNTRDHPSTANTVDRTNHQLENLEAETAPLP

[3] = molecular target: T21, Platelet Activating Factor (PAF) (Homo sapiens, UniProt P25105); assay: Eurofins SafetyScreen panel; type: binding
T21 construct: Eurofins (contract assay)

Serotonin 5-HT2A = molecular target: T22, Serotonin 5-HT2A (Homo sapiens, UniProt P28223); assay: Eurofins SafetyScreen panel; type: binding
T22 construct: Eurofins (contract assay)

Serotonin 5-HT2B = molecular target: T23, Serotonin 5-HT2B (Homo sapiens, UniProt P41595); assay: Eurofins SafetyScreen panel; type: binding
T23 construct: Eurofins (contract assay)
T23 sequence (P41595 whole entry): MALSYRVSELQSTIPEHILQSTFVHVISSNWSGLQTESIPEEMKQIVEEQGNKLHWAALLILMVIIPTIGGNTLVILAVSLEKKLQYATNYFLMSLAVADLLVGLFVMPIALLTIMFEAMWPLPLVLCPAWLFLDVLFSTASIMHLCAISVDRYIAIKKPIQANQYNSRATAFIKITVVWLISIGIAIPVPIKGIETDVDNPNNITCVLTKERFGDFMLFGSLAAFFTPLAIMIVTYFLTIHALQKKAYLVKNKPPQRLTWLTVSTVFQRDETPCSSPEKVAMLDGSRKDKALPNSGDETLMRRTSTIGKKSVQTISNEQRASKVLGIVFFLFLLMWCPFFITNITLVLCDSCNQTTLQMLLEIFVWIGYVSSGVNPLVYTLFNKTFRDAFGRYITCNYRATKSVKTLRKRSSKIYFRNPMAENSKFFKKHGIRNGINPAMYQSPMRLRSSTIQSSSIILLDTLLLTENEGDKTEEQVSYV

Serotonin 5-HT4 = molecular target: T24, Serotonin 5-HT4 (Cavia porcellus, UniProt O70528); assay: Eurofins SafetyScreen panel; type: binding, guinea pig
T24 construct: Eurofins (contract assay) 272000

Tachykinin NK1 = molecular target: T25, Tachykinin NK1 (Homo sapiens, UniProt P25103); assay: Eurofins SafetyScreen panel; type: binding
T25 construct: Eurofins (contract assay)
T25 sequence (P25103 whole entry): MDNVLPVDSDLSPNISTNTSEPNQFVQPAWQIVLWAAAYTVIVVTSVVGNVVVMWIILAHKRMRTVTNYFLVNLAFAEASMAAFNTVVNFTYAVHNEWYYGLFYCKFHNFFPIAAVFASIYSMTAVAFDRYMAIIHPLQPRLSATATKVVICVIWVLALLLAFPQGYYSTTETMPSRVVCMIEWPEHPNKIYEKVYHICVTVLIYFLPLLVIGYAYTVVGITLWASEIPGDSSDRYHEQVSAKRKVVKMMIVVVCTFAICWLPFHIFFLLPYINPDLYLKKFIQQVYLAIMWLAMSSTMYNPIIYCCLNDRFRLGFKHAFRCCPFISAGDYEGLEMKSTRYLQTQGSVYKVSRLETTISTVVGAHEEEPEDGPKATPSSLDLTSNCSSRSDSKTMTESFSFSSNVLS

[4] = molecular target: T26, Dopamine Transporter (DAT) (Homo sapiens, UniProt Q01959); assay: Eurofins SafetyScreen panel; type: binding
T26 construct: Eurofins (contract assay)
T26 sequence (Q01959 whole entry): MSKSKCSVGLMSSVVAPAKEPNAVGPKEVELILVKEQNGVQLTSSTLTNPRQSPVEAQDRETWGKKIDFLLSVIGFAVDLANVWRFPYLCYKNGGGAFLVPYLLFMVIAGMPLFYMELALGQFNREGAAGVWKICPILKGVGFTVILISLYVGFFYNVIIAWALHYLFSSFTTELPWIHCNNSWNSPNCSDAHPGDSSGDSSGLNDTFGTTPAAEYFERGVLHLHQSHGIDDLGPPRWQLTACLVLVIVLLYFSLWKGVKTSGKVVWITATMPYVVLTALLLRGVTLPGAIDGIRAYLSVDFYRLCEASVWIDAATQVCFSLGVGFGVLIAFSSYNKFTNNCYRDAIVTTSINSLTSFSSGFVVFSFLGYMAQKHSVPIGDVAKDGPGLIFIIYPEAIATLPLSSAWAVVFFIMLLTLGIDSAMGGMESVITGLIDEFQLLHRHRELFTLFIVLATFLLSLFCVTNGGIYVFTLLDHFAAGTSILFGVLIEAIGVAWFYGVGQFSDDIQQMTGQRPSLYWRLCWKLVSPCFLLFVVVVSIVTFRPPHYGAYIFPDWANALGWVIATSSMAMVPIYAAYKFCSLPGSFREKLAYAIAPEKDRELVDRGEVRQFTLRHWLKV

GABA Transporter = molecular target: T27, GABA Transporter (Rattus norvegicus, UniProt P23978); assay: Eurofins SafetyScreen panel; type: binding
T27 construct: Eurofins (contract assay)

[5] = molecular target: T28, Serotonin Transporter (SERT) (Homo sapiens, UniProt P31645); assay: Eurofins SafetyScreen panel; type: binding
T28 construct: Eurofins (contract screening, SafetyScreen panel) PP223

h5-HT1A = h5-HT1A (Homo sapiens, UniProt P08908); conditions: 5-HT1AR
Description: For membrane preparation, cells after reaching 90% confluence, were washed with phosphate-buffered saline (PBS), and pelleted by centrifugation (200 × g) in PBS containing 0.1 mM EDTA and 1 mM dithiothreitol.
The total reaction volume was 200 μL. The incubation process was terminated by filtration through UniFilter-96 (PerkinElmer) plates with the FilterMate Universal Harvester (PerkinElmer, #C961962), and radioactivity retained on the filters was quantified on a MicroBeta counter for radiometric detection (PerkinElmer). […] To evaluate the level of nonspecific signal 10 μM of 5-HT for 5-HT1AR and 5-HT7R, 20 μM of mianserin for 5-HT2AR, 10 μM of methiothepine for 5-HT6R and 10 μM of haloperidol for D2LR were used. […] The acquired results were presented as the mean of at least two independent experiments.

CYP1A2 = CYP1A2 (Homo sapiens, UniProt P05177); assay: Cytochrome P450 inhibition (Eurofins)
CYP2C19 = CYP2C19 (Homo sapiens, UniProt P33261); assay: Cytochrome P450 inhibition (Eurofins)
CYP3A4 = CYP3A4 (Homo sapiens, UniProt P08684); assay: Cytochrome P450 inhibition (Eurofins)
[6] = read-out: %inh, 10 μM, additional batch

O=S(=O)(c1cccc(F)c1)n1ccc2c(N3CCNCC3)nc3ccccc3c21 [FPPQ, 1-[(3-Fluorophenyl)sulfonyl]-4-(piperazin-1-yl)-1H-pyrrolo[3,2-c]quinoline dihydrochloride]
inhibition at 10 µM (COX-1): -6%
inhibition at 10 µM (MAO-A): 12%
inhibition at 10 µM (Adrenergic α1A): 34%
pIC50 (Adrenergic β1): 6.52
pKi (Adrenergic β1): 6.77
inhibition at 0.01 µM (Adrenergic β1; read-out: %inh, 10 nM): -3%
inhibition at 0.1 µM (Adrenergic β1; read-out: %inh, 0.1 μM): 27%
inhibition at 1 µM (Adrenergic β1; read-out: %inh, 1 μM): 75%
inhibition at 10 µM (Adrenergic β1; [6]): 102%
inhibition at 10 µM (Angiotensin AT1): -4%
inhibition at 10 µM (Bradykinin B2): 0%
inhibition at 10 µM (Cannabinoid CB1): 35%
inhibition at 10 µM (Chemokine CCR1): -6%
inhibition at 10 µM (Dopamine D1): 27%
inhibition at 10 µM (Dopamine D2L): 46%
inhibition at 10 µM (Dopamine D2S): 46%
pIC50 (Dopamine D3): 6.20
pKi (Dopamine D3): 6.68
inhibition at 0.01 µM (Dopamine D3; read-out: %inh, 10 nM): -2%
inhibition at 0.1 µM (Dopamine D3; read-out: %inh, 0.1 μM): 14%
inhibition at 1 µM (Dopamine D3; read-out: %inh, 1 μM): 63%
inhibition at 10 µM (Dopamine D3; read-out: %inh, 10 μM): 89%
inhibition at 10 µM (Dopamine D3; [6]): 90%
inhibition at 10 µM [1]: 16%
inhibition at 10 µM (Glutamate NMDA, Glycine): -1%
pIC50 (Histamine H1): 6.34
pKi (Histamine H1): 6.66
inhibition at 0.01 µM (Histamine H1; read-out: %inh, 10 nM): 4%
inhibition at 0.1 µM (Histamine H1; read-out: %inh, 0.1 μM): 19%
inhibition at 1 µM (Histamine H1; read-out: %inh, 1 μM): 67%
inhibition at 10 µM (Histamine H1; read-out: %inh, 10 μM): 97%
inhibition at 10 µM (Histamine H1; [6]): 98%
inhibition at 10 µM (Histamine H2): 45%
inhibition at 10 µM [2]: 10%
inhibition at 10 µM (Muscarinic M2): 5%
inhibition at 10 µM (Muscarinic M4): 8%
inhibition at 10 µM (Neuropeptide Y Y1): 37%
pIC50 (Opiate μ (OP3, MOP)): 5.15
inhibition at 0.1 µM (Opiate μ (OP3, MOP); read-out: %inh, 0.1 μM): 3%
inhibition at 10 µM (Opiate μ (OP3, MOP); read-out: %inh, 10 μM): 59%
inhibition at 10 µM (Opiate μ (OP3, MOP); [6]): 61%
inhibition at 100 µM (Opiate μ (OP3, MOP); read-out: %inh, 100 μM): 97%
inhibition at 10 µM [3]: 14%
inhibition at 10 µM (Serotonin 5-HT2A): 50%
pIC50 (Serotonin 5-HT2B): 6.59
pKi (Serotonin 5-HT2B): 6.77
inhibition at 0.01 µM (Serotonin 5-HT2B; read-out: %inh, 10 nM): 13%
inhibition at 0.1 µM (Serotonin 5-HT2B; read-out: %inh, 0.1 μM): 31%
inhibition at 1 µM (Serotonin 5-HT2B; read-out: %inh, 1 μM): 71%
inhibition at 10 µM (Serotonin 5-HT2B; read-out: %inh, 10 μM): 96%
inhibition at 10 µM (Serotonin 5-HT2B; [6]): 97%
inhibition at 10 µM (Serotonin 5-HT4): 30%
pIC50 (Tachykinin NK1): 4.86
pKi (Tachykinin NK1): 5.00
inhibition at 0.1 µM (Tachykinin NK1; 0.1 μM): 0%
inhibition at 1 µM (Tachykinin NK1; 1 μM): 10%
inhibition at 10 µM (Tachykinin NK1): 40%
inhibition at 10 µM (Tachykinin NK1; additional batch): 58%
inhibition at 100 µM (Tachykinin NK1; 100 μM): 92%
pIC50 [4]: 5.86
inhibition at 0.01 µM ([4]; read-out: %inh, 10 nM): 2%
inhibition at 0.1 µM ([4]; read-out: %inh, 0.1 μM): 6%
inhibition at 1 µM ([4]; read-out: %inh, 1 μM): 31%
inhibition at 10 µM ([4]; read-out: %inh, 10 μM): 101%
inhibition at 10 µM [4, 6]: 98%
inhibition at 10 µM (GABA Transporter): 3%
inhibition at 10 µM [5]: 18%
pKi (h5-HT1A): 6.36
pIC50 (CYP1A2): 4.92
pIC50 (CYP2C19): 5.00
pIC50 (CYP3A4): 4.24
